This passage reports DC50 and Dmax results from patent US20240279202A1 (NURIX THERAPEUTICS, INC., priority 2021, published 2024).

The experiment has as its target T1, ITK (Homo sapiens, UniProt Q08881).
T1 sequence (Q08881 1-620): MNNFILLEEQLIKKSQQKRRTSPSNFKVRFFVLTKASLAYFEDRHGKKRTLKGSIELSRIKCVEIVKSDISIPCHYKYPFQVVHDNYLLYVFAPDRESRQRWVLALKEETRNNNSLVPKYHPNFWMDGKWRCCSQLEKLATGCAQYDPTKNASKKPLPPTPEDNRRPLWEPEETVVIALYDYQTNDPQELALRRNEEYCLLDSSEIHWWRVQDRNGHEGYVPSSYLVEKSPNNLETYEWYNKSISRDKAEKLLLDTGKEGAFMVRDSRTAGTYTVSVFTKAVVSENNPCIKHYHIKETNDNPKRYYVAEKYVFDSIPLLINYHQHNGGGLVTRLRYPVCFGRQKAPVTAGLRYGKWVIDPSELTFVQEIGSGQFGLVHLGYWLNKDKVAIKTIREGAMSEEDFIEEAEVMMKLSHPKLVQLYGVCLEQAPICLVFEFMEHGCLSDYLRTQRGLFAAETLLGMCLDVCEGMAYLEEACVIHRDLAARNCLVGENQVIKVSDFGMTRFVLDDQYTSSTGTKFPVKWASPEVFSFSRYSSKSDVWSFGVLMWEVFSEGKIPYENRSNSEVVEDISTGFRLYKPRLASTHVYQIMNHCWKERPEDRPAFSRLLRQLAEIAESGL
Briefly: ITK degradation HiBiT assay. As to conditions: 4 hrs; for DC50: C-terminal HiBiT-tagged Molt4 cells; for Dmax: MOLT-4, C-terminal HiBiT-tagged Molt4 cells. Details: expressed in transfected cells; host or cells: Molt4 (ATCC CRL-1552), monoclonal clone 1C10, engineered to carry the HiBiT tag. The format is cell-based. The procedure: Itk Degradation Hibit Assay
Compounds provided herein were assayed in vitro with ITK HiBit cell lines. Compound dilution series (11-point, 5 fold dilutions in DMSO, columns 2-12 with replicate in rows A/B, C/D, E/F, G,H at 2000× the final required concentrations were prepared in 96 well plates (Falcon, cat. no. 353077). Column 1, rows A-H were control DMSO. The 2000× solutions ranged from 2 mM to 1.024 nM (final assay concentration range 1 μM to […]). The 2000× solutions were added to cells in […], for a final DMSO concentration of 0.5% and final assay compound concentration of 1×. For the cells, C-terminal HiBiT-tagged Molt4 cells (ATCC CRL-1552, monoclonal cell line clone 1C10) were plated at 1×10^6 cells/mL, 100 μL/well ([…]) in complete RPMI (10% FBS, 1% L-glutamine). The cells were incubated with compound 10 and compound 17 for 4 hrs at […]/6% CO2.
Following incubation, 100 μL of complete Nano-Glo HiBiT Lytic Detection Reagent (Nano-Glo HiBiT Lytic Buffer with 1:50 Nano-Glo HiBiT Lytic Substrate and 1:100 LgBiT Protein; Promega cat. no. N3040) was added. Cells were further incubated for 10 min at room temperature (RT). Luminescence units (LU) were read on an EnVision plate reader (Perkin Elmer, 0.1 sec per well). Percent ITK remaining per sample was calculated as follows: […]
Using Graphpad Prism, % ITK remaining values were plotted as a function of compound concentration. To determine DC50 and Dmax values, resulting curves were fit to the Prism curve-fitting equation “log(inhibitor) vs response—Variable slope (four parameters)” (reported best fit value IC50 used as DC50). ITK was measured with antibody-based MSD (Meso-Scale Discovery) assays shown below.

`C[C@@]12Cc3[nH]nc(C(=O)Nc4cnn(C5CCN(CC6CCN(c7ccc(C8CCC(=O)NC8=O)cc7F)CC6)CC5)c4)c3C[C@@H]1C2(F)F` (mixture of isomers) [Compound 112, (4aS,5aR)-N-(1-{1-[(1-{4-[(3RS)-2,6-dioxopiperidin-3-yl]-2-fluorophenyl}piperidin-4-yl)methyl]piperidin-4-yl}-1H-pyrazol-4-yl)-5,5-difluoro-5a-methyl-1H,4H,4aH,5H,5aH,6H-cyclopropa[f]indazole-3-carboxamide]: the DC50 (usually the concentration giving 50% degradation) is 140 pM and the Dmax (usually the largest share of the target that was removed) came to 87%.

`C[C@@]12Cc3[nH]nc(C(=O)Nc4cnn(C5CCN(CC6CCN(c7ccc(C8CCC(=O)NC8=O)cn7)CC6)CC5)c4)c3C[C@@H]1C2(F)F` (mixture of isomers) [Compound 114, (4aS,5aR)-N-(1-{1-[(1-{5-[(3RS)-2,6-dioxopiperidin-3-yl]pyridin-2-yl}piperidin-4-yl)methyl]piperidin-4-yl}-1H-pyrazol-4-yl)-5,5-difluoro-5a-methyl-1H,4H,4aH,5H,5aH,6H-cyclopropa[f]indazole-3-carboxamide] yielded a DC50 of 2 pM and a Dmax of 87%.

With `C[C@@]12Cc3[nH]nc(C(=O)Nc4cnn(C5CCN(CC6CCN(c7ncc(C8CCC(=O)NC8=O)cn7)CC6)CC5)c4)c3C[C@@H]1C2(F)F` (mixture of isomers) [Compound 115, (4aS,5aR)-N-(1-{1-[(1-{5-[(3RS)-2,6-dioxopiperidin-3-yl]pyrimidin-2-yl}piperidin-4-yl)methyl]piperidin-4-yl}-1H-pyrazol-4-yl)-5,5-difluoro-5a-methyl-1H,4H,4aH,5H,5aH,6H-cyclopropa[f]indazole-3-carboxamide], the DC50 worked out at 391 pM and the Dmax was found to be 84%.

Take `C[C@@]12Cc3[nH]nc(C(=O)Nc4cnn(CC5CCN(CC6CCN(c7ccc(C8CCC(=O)NC8=O)cc7)CC6)CC5)c4)c3C[C@@H]1C2(F)F` (mixture of isomers) [Compound 119, (4aS,5aR)-N-[1-({1-[(1-{4-[(3RS)-2,6-dioxopiperidin-3-yl]phenyl}piperidin-4-yl)methyl]piperidin-4-yl}methyl)-1H-pyrazol-4-yl]-5,5-difluoro-5a-methyl-1H,4H,4aH,5H,5aH,6H-cyclopropa[f]indazole-3-carboxamide]: the 50% degradation concentration (DC50) was determined as 41 pM and the Dmax came to 85%.

As to `C[C@@]12Cc3[nH]nc(C(=O)Nc4cnn(CC5CCN(CC6CCN(c7ccc(C8CCC(=O)NC8=O)cn7)CC6)CC5)c4)c3C[C@@H]1C2(F)F` (mixture of isomers) [Compound 120, (4aS,5aR)-N-[1-({1-[(1-{5-[(3RS)-2,6-dioxopiperidin-3-yl]pyridin-2-yl}piperidin-4-yl)methyl]piperidin-4-yl}methyl)-1H-pyrazol-4-yl]-5,5-difluoro-5a-methyl-1H,4H,4aH,5H,5aH,6H-cyclopropa[f]indazole-3-carboxamide], the DC50 was 49 pM and the maximal degradation (Dmax) amounted to 84%.

The compound `COC[C@@]1(C)CCc2c(-c3cc4ccc(C(=O)N5CCN(CC6CCN(c7ccc(C8CCC(=O)NC8=O)cc7)CC6)CC5)cc4[nH]3)n[nH]c2C1` (mixture of isomers) [Compound 224, (3RS)-3-(4-{4-[(4-{2-[(6S)-6-(methoxymethyl)-6-methyl-1,4,5,7-tetrahydroindazol-3-yl]-1H-indole-6-carbonyl}piperazin-1-yl)methyl]piperidin-1-yl}phenyl)piperidine-2,6-dione] registered a half-maximal degradation concentration (DC50) of 8500 pM and a Dmax of 84%.

In turn, `C[C@@]12Cc3[nH]nc(-c4cc5ccc(C(=O)N6CCN(CC7CCN(c8ccc(C9CCC(=O)NC9=O)cc8)CC7)CC6)cc5[nH]4)c3C[C@@H]1C2` (mixture of isomers) [Compound 225, (3RS)-3-(4-{4-[(4-{2-[(4aS,5aR)-5a-Methyl-1H,4H,4aH,5H,6H-cyclopropa[f]indazol-3-yl]-1H-indole-6-carbonyl}piperazin-1-yl)methyl]piperidin-1-yl}phenyl)piperidine-2,6-dione] showed a DC50 of 8500 pM and a Dmax of 84%.

Take `C[C@@]12Cc3[nH]nc(-c4nc5ccc(C(=O)N6CCN(CC7CCN(c8ccc(C9CCC(=O)NC9=O)cc8)CC7)CC6)cc5[nH]4)c3C[C@@H]1C2(F)F` (mixture of isomers) [Compound 227, (3RS)-3-(4-{4-[(4-{2-[(4aS,5aR)-5,5-difluoro-5a-methyl-1H,4H,4aH,6H-cyclopropa [f]indazol-3-yl]-3H-1,3-benzodiazole-5-carbonyl}piperazin-1-yl)methyl]piperidin-1-yl}phenyl)piperidine-2,6-dione]: the DC50 stood at 600 pM and the Dmax stood at 87%.

Compound `CN(c1ccc2cc(-c3n[nH]c4c3C[C@@H]3C(F)(F)[C@]3(C)C4)[nH]c2c1)C(=O)[C@H]1C[C@@]2(CCN(c3ccc4c(c3)C(=O)N([C@H]3CCC(=O)NC3=O)C4=O)C2)C1` (racemic) [Compound 71a, (2r,4r)-N-[2-[(4aS,5aR)-5,5-difluoro-5a-methyl-1H,4H,4aH,6H-cyclopropa[f]indazol-3-yl]-1H-indol-6-yl]-6-[2-[(3RS)-2,6-dioxopiperidin-3-yl]-1,3-dioxoisoindol-5-yl]-N-methyl-6-azaspiro[3.4]octane-2-carboxamide] yielded a Dmax of 53%.

As to `C[C@@]12Cc3[nH]nc(C(=O)Nc4cnn(C5CCC(CN6CCc7cc(C8CCC(=O)NC8=O)ccc7C6)CC5)c4)c3C[C@@H]1C2(F)F` (mixture of isomers) [Compound 123, (4aS,5aR)-5,5-difluoro-5a-methyl-N-{1-[(lsr,4sr)-4-({6-[(3RS)-2,6-dioxopiperidin-3-yl]-1,2,3,4-tetrahydroisoquinolin-2-yl}methyl)cyclohexyl]-1H-pyrazol-4-yl}-1H,4H,4aH,5H,5aH,6H-cyclopropa[f]indazole-3-carboxamide], half-maximal degradation (DC50) was put at 63100 pM and the maximal degradation (Dmax) is 63%.

`C[C@@]12Cc3[nH]nc(C(=O)Nc4cnn(C5CCC(CN6CCN(c7ccc(C8CCC(=O)NC8=O)cn7)CC6)CC5)c4)c3C[C@@H]1C2(F)F` (mixture of isomers) [Compound 125, (4aS,5aR)-5,5-difluoro-5a-methyl-N-{1-[(1rs,4rs)-4-[(4-{5-[(3RS)-2,6-dioxopiperidin-3-yl]pyridin-2-yl}piperazin-1-yl)methyl]cyclohexyl]-1H-pyrazol-4-yl}-1H,4H,4aH,5H,5aH,6H-cyclopropa[f]indazole-3-carboxamide] came in with a DC50 of 3300 pM and a Dmax of 88%.

The compound `C[C@@]12Cc3[nH]nc(C(=O)Nc4cnn(C5CCC(CN6CCN(c7ccc(C8CCC(=O)NC8=O)cc7)CC6)CC5)c4)c3C[C@@H]1C2(F)F` (mixture of isomers) [Compound 126, (4aS,5aR)-5,5-difluoro-5a-methyl-N-{1-[(1rs,4rs)-4-[(4-{4-[(3RS)-2,6-dioxopiperidin-3-yl]phenyl}piperazin-1-yl)methyl]cyclohexyl]-1H-pyrazol-4-yl}-1H,4H,4aH,5H,5aH,6H-cyclopropa[f]indazole-3-carboxamide] had a DC50 of 1400 pM and a Dmax of 91%.
